Reference: ChEMBL document CHEMBL4665709, “Rational Avoidance of Protease Cleavage Sites and Symmetrical End-Tagging Significantly Enhances the Stability and Therapeutic Potential of Antimicrobial Peptides” (J Med Chem, 2020)
Converted amounts (≈) assume the structure as drawn. Where a SMILES comes first, the peptide text is derived from it.

How the values were obtained:
[1] = Therapeutic index, ratio of MHC for human RBC to geometric mean of peptide MIC for Streptococcus agalactiae H92; assay type: toxicity; settings: human red blood cells (RBC), read-out: TI
[2] = Therapeutic index, ratio of MHC for human RBC to geometric mean of peptide MIC for Staphylococcus epidermidis ATCC 12228; assay type: toxicity; settings: human red blood cells (RBC), read-out: TI
[3] = Therapeutic index, ratio of MHC for human RBC to geometric mean of peptide MIC for methicillin-resistant Staphylococcus aureus 43300; assay type: toxicity; settings: human red blood cells (RBC), read-out: TI
[4] = Therapeutic index, ratio of MHC for human RBC to geometric mean of peptide MIC for Enterococcus faecalis ATCC 29212; assay type: toxicity; settings: human red blood cells (RBC), read-out: TI
[5] = Therapeutic index, ratio of MHC for human RBC to geometric mean of peptide MIC for Staphylococcus aureus ATCC 29213; assay type: toxicity; settings: human red blood cells (RBC), read-out: TI
[6] = Therapeutic index, ratio of MHC for human RBC to geometric mean of peptide MIC for Staphylococcus aureus 11011; assay type: toxicity; settings: human red blood cells (RBC), read-out: TI
[7] = Therapeutic index, ratio of MHC for human RBC to geometric mean of peptide MIC for Salmonella pullorum 7913; assay type: toxicity; settings: human red blood cells (RBC), read-out: TI
[8] = Therapeutic index, ratio of MHC for human RBC to geometric mean of peptide MIC for Salmonella typhimurium 7731; assay type: toxicity; settings: human red blood cells (RBC), read-out: TI
[9] = Therapeutic index, ratio of MHC for human RBC to geometric mean of peptide MIC for Salmonella choleraesuis 503; assay type: toxicity; settings: human red blood cells (RBC), read-out: TI
[10] = Therapeutic index, ratio of MHC for human RBC to geometric mean of peptide MIC for Escherichia coli UB1005; assay type: toxicity; settings: human red blood cells (RBC), read-out: TI
[11] = Therapeutic index, ratio of MHC for human RBC to geometric mean of peptide MIC for Salmonella typhimurium 14028; assay type: toxicity; settings: human red blood cells (RBC), read-out: TI
[12] = Therapeutic index, ratio of MHC for human RBC to geometric mean of peptide MIC for Escherichia coli ATCC 25922; assay type: toxicity; settings: human red blood cells (RBC), read-out: TI
Staphylococcus aureus [13] = experiment: Antibacterial activity against Staphylococcus aureus ATCC 29213 after 18 to 24 hrs by CLSI-based broth microdilution method; assay type: functional; settings: time hrs 18-24
Staphylococcus aureus [14] = experiment: Antibacterial activity against Staphylococcus aureus 11011 after 18 to 24 hrs by CLSI-based broth microdilution method; assay type: functional; settings: time hrs 18-24
Escherichia coli [15] = experiment: Antibacterial activity against Escherichia coli ATCC 25922 after 18 to 24 hrs by CLSI-based broth microdilution method; assay type: functional; settings: time hrs 18-24
Escherichia coli [16] = experiment: Antibacterial activity against Escherichia coli UB1005 after 18 to 24 hrs by CLSI-based broth microdilution method; assay type: functional; settings: time hrs 18-24
Salmonella typhimurium [17] = experiment: Antibacterial activity against Salmonella typhimurium 14028 after 18 to 24 hrs by CLSI-based broth microdilution method; assay type: functional, Salmonella enterica subsp. enterica serovar Typhimurium; settings: Salmonella enterica, time hrs 18-24
Salmonella typhimurium [18] = experiment: Antibacterial activity against Salmonella typhimurium 7731 after 18 to 24 hrs by CLSI-based broth microdilution method; assay type: functional, Salmonella enterica subsp. enterica serovar Typhimurium; settings: Salmonella enterica, time hrs 18-24
[19] = Antibacterial activity against Salmonella pullorum 7913 after 18 to 24 hrs by CLSI-based broth microdilution method; assay type: functional, Salmonella enterica subsp. enterica serovar Pullorum; settings: Salmonella enterica, time hrs 18-24
Salmonella enterica = experiment: Antibacterial activity against Salmonella choleraesuis 503 after 18 to 24 hrs by CLSI-based broth microdilution method; assay type: functional; settings: time hrs 18-24
[20] = system: Staphylococcus epidermidis; experiment: Antibacterial activity against Staphylococcus epidermidis ATCC 12228 after 18 to 24 hrs by CLSI-based broth microdilution method; assay type: functional; settings: time hrs 18-24
Enterococcus faecalis = experiment: Antibacterial activity against Enterococcus faecalis ATCC 29212 after 18 to 24 hrs by CLSI-based broth microdilution method; assay type: functional; settings: time hrs 18-24
Staphylococcus aureus [21] = experiment: Antibacterial activity against methicillin-resistant Staphylococcus aureus 43300 after 18 to 24 hrs by CLSI-based broth microdilution method; assay type: functional; settings: time hrs 18-24
Streptococcus agalactiae = experiment: Antibacterial activity against Streptococcus agalactiae H92 after 18 to 24 hrs by CLSI-based broth microdilution method; assay type: functional; settings: time hrs 18-24
Erythrocyte = experiment: Hemolytic activity in human RBC assessed as hemolysis; assay type: ADME, cell-based
[22] = Hemolytic activity in human RBC assessed as hemolysis at 1 to 128 uM relative to control; assay type: ADME, cell-based, Erythrocyte; settings: human red blood cells (RBC), dose 1-128 µM, read-out: Activity
[23] = Cytotoxicity against mouse RAW264.7 cells assessed as cell viability at 128 uM by MTT assay relative to control; assay type: cell-based; settings: read-out: Activity
[24] = Cytotoxicity against HEK-293T cells assessed as cell viability at 128 uM by MTT assay relative to control; assay type: cell-based; settings: human, read-out: Activity

Row | Structure (SMILES) | selectivity ratio [1] | selectivity ratio [2] | selectivity ratio [3] | selectivity ratio [4] | selectivity ratio [5] | selectivity ratio [6] | selectivity ratio [7] | selectivity ratio [8] | selectivity ratio [9] | selectivity ratio [10] | selectivity ratio [11] | selectivity ratio [12] | MIC (Staphylococcus aureus [13]) | MIC (Staphylococcus aureus [14]) | MIC (Escherichia coli [15]) | MIC (Escherichia coli [16]) | MIC (Salmonella typhimurium [17]) | MIC (Salmonella typhimurium [18]) | MIC [19] | MIC (Salmonella enterica) | also measured
1 | CC[C@H](C)[C@H](N)C(=O)N[C@H](C(=O)N[C@@H](CS)C(=O)N[C@@H](CCCNC(=N)N)C(=O)N[C@@H](CCCCN)C(=O)N1CCC[C@H]1C(=O)N[C@H](C(=O)N[C@H](C(=O)N[C@@H](CS)C(=O)N[C@@H](CCCNC(=N)N)C(=O)N[C@@H](CCCCN)C(=O)N1CCC[C@H]1C(=O)N[C@H](C(=O)N[C@H](C(=O)N[C@@H](CS)C(=O)N[C@@H](CCCNC(=N)N)C(=O)N[C@@H](CCCCN)C(=O)N1CCC[C@H]1C(=O)N[C@H](C(=O)N[C@H](C(=O)N[C@@H](CS)C(=O)N[C@@H](CCCNC(=N)N)C(=O)N[C@@H](CCCCN)C(=O)N1CCC[C@H]1C(=O)N[C@H](C(=O)N[C@H](C(=O)N[C@@H](CS)C(=O)N[C@@H](CCCNC(=N)N)C(=O)N[C@@H](CCCCN)C(=O)N1CCC[C@H]1C(=O)N[C@H](C(=O)N[C@H](C(N)=O)[C@@H](C)CC)[C@@H](C)CC)[C@@H](C)CC)[C@@H](C)CC)[C@@H](C)CC)[C@@H](C)CC)[C@@H](C)CC)[C@@H](C)CC)[C@@H](C)CC)[C@@H](C)CC)[C@@H](C)CC (H-IICRKPIICRKPIICRKPIICRKPIICRKPII-NH2) | 2 | 2 | 2 | 2 | 2 | 2 | 40.3 | 40.3 | 40.3 | 40.3 | 40.3 | 40.3 | > 64 µM | > 64 µM | 2 µM (≈ 7.6 µg/mL) | 2 µM (≈ 7.6 µg/mL) | 4 µM (≈ 15.2 µg/mL) | 2 µM (≈ 7.6 µg/mL) | 8 µM (≈ 30.4 µg/mL) | 4 µM (≈ 15.2 µg/mL) | MIC [20]: 64 µM (≈ 243 µg/mL); MIC (Enterococcus faecalis): > 64 µM; MIC (Staphylococcus aureus [21]): 64 µM (≈ 243 µg/mL); MIC (Streptococcus agalactiae): > 64 µM; MHC (Erythrocyte): > 128 µM; hemolysis at up to 128 µM [22]: < 5%; viability at 128 µM [23]: > 90%; viability at 128 µM [24]: > 90%
2 | CC[C@H](C)[C@H](N)C(=O)N[C@H](C(=O)N[C@@H](CS)C(=O)N[C@@H](CCCNC(=N)N)C(=O)N[C@@H](CCCCN)C(=O)N1CCC[C@H]1C(=O)N[C@H](C(=O)N[C@H](C(=O)N[C@@H](CS)C(=O)N[C@@H](CCCNC(=N)N)C(=O)N[C@@H](CCCCN)C(=O)N1CCC[C@H]1C(=O)N[C@H](C(=O)N[C@H](C(=O)N[C@@H](CS)C(=O)N[C@@H](CCCNC(=N)N)C(=O)N[C@@H](CCCCN)C(=O)N1CCC[C@H]1C(=O)N[C@H](C(=O)N[C@H](C(N)=O)[C@@H](C)CC)[C@@H](C)CC)[C@@H](C)CC)[C@@H](C)CC)[C@@H](C)CC)[C@@H](C)CC)[C@@H](C)CC (H-IICRKPIICRKPIICRKPII-NH2) | 2 | 2 | 2 | 2 | 2 | 2 | 14.2 | 14.2 | 14.2 | 14.2 | 14.2 | 14.2 | > 64 µM | > 64 µM | 4 µM (≈ 9.5 µg/mL) | 4 µM (≈ 9.5 µg/mL) | 8 µM (≈ 19 µg/mL) | 8 µM (≈ 19 µg/mL) | 32 µM (≈ 76 µg/mL) | 16 µM (≈ 38 µg/mL) | MIC [20]: 64 µM (≈ 152 µg/mL); MIC (Enterococcus faecalis): > 64 µM; MIC (Staphylococcus aureus [21]): 64 µM (≈ 152 µg/mL); MIC (Streptococcus agalactiae): 64 µM (≈ 152 µg/mL); MHC (Erythrocyte): > 128 µM; hemolysis at up to 128 µM [22]: < 5%; viability at 128 µM [23]: > 90%; viability at 128 µM [24]: > 90%
3 | CC[C@H](C)[C@H](N)C(=O)N[C@@H](CS)C(=O)N[C@@H](CCCNC(=N)N)C(=O)N[C@@H](CCCCN)C(=O)N1CCC[C@H]1C(=O)N[C@H](C(=O)N[C@H](C(=O)N[C@@H](CS)C(=O)N[C@@H](CCCNC(=N)N)C(=O)N[C@@H](CCCCN)C(=O)N1CCC[C@H]1C(=O)N[C@H](C(N)=O)[C@@H](C)CC)[C@@H](C)CC)[C@@H](C)CC (H-ICRKPIICRKPI-NH2) | 2 | 2 | 2 | 2 | 2 | 2 | 2 | 2 | 2 | 2 | 2 | 2 | > 64 µM | > 64 µM | 64 µM (≈ 92.1 µg/mL) | > 64 µM | > 64 µM | > 64 µM | > 64 µM | > 64 µM | MIC [20]: > 64 µM; MIC (Enterococcus faecalis): > 64 µM; MIC (Staphylococcus aureus [21]): > 64 µM; MIC (Streptococcus agalactiae): > 64 µM; MHC (Erythrocyte): > 128 µM; hemolysis at up to 128 µM [22]: < 5%; viability at 128 µM [23]: > 90%; viability at 128 µM [24]: > 90%
